The NIST ThermoML archive (doi:10.1021/je060257y)
± gives the expanded uncertainty stated by the source.

Assay: molar heat capacity at constant pressure
Conditions: 101.33 kPa, Crystal

SMILES: Cc1cc(=O)n(C)c(=O)[nH]1 [3,6-dimethyluracil]
- molar heat capacity at constant pressure (298.15 K): 187.4 ± 5.9 J/K/mol
- molar heat capacity at constant pressure (303.15 K): 193.1 ± 6 J/K/mol
- molar heat capacity at constant pressure (308.15 K): 191.4 ± 6 J/K/mol
- molar heat capacity at constant pressure (313.15 K): 193.5 ± 6.1 J/K/mol
- molar heat capacity at constant pressure (318.15 K): 198.4 ± 6.2 J/K/mol
- molar heat capacity at constant pressure (323.15 K): 200.3 ± 6.2 J/K/mol
- molar heat capacity at constant pressure (328.15 K): 202.4 ± 6.3 J/K/mol
- molar heat capacity at constant pressure (333.15 K): 203.8 ± 6.3 J/K/mol
- molar heat capacity at constant pressure (338.15 K): 206 ± 6.4 J/K/mol
- molar heat capacity at constant pressure (343.15 K): 209 ± 6.5 J/K/mol

SMILES: O=c1[nH]cc(C(F)(F)F)c(=O)[nH]1 [5-(trifluoromethyl)uracil]
- molar heat capacity at constant pressure (298.15 K): 182.2 ± 5.6 J/K/mol
- molar heat capacity at constant pressure (303.15 K): 183.9 ± 5.7 J/K/mol
- molar heat capacity at constant pressure (308.15 K): 188.1 ± 5.8 J/K/mol
- molar heat capacity at constant pressure (313.15 K): 190.3 ± 5.9 J/K/mol
- molar heat capacity at constant pressure (318.15 K): 192.2 ± 6 J/K/mol
- molar heat capacity at constant pressure (323.15 K): 195.9 ± 6.1 J/K/mol
- molar heat capacity at constant pressure (328.15 K): 198.2 ± 6.1 J/K/mol
- molar heat capacity at constant pressure (333.15 K): 199.4 ± 6.2 J/K/mol
- molar heat capacity at constant pressure (338.15 K): 204.4 ± 6.3 J/K/mol
- molar heat capacity at constant pressure (343.15 K): 206.6 ± 6.4 J/K/mol

SMILES: O=c1[nH]cc(Br)c(=O)[nH]1 [5-bromouracil]
- molar heat capacity at constant pressure (298.15 K): 144.7 ± 4.5 J/K/mol
- molar heat capacity at constant pressure (303.15 K): 147.9 ± 4.6 J/K/mol
- molar heat capacity at constant pressure (308.15 K): 148.5 ± 4.6 J/K/mol
- molar heat capacity at constant pressure (313.15 K): 151 ± 4.7 J/K/mol
- molar heat capacity at constant pressure (318.15 K): 153.9 ± 4.8 J/K/mol
- molar heat capacity at constant pressure (323.15 K): 157.1 ± 4.9 J/K/mol
- molar heat capacity at constant pressure (328.15 K): 157.9 ± 4.9 J/K/mol
- molar heat capacity at constant pressure (333.15 K): 162 ± 5 J/K/mol
- molar heat capacity at constant pressure (338.15 K): 164.3 ± 5.1 J/K/mol
- molar heat capacity at constant pressure (343.15 K): 164.8 ± 5.1 J/K/mol

SMILES: Oc1ncc(Cl)c(O)n1 [5-chloro-2,4-pyrimidinedione]
- molar heat capacity at constant pressure (298.15 K): 136.7 ± 4.2 J/K/mol
- molar heat capacity at constant pressure (303.15 K): 137.9 ± 4.3 J/K/mol
- molar heat capacity at constant pressure (308.15 K): 142.1 ± 4.4 J/K/mol
- molar heat capacity at constant pressure (313.15 K): 142.9 ± 4.4 J/K/mol
- molar heat capacity at constant pressure (318.15 K): 146.1 ± 4.5 J/K/mol
- molar heat capacity at constant pressure (323.15 K): 147.2 ± 4.6 J/K/mol
- molar heat capacity at constant pressure (328.15 K): 151.2 ± 4.7 J/K/mol
- molar heat capacity at constant pressure (333.15 K): 152.9 ± 4.7 J/K/mol
- molar heat capacity at constant pressure (338.15 K): 154.9 ± 4.8 J/K/mol
- molar heat capacity at constant pressure (343.15 K): 157 ± 4.9 J/K/mol

SMILES: O=c1[nH]cc(F)c(=O)[nH]1 [5-fluoro-2,4(1H,3H)-pyrimidinedione]
- molar heat capacity at constant pressure (298.15 K): 138.3 ± 4.7 J/K/mol
- molar heat capacity at constant pressure (303.15 K): 139.1 ± 4.7 J/K/mol
- molar heat capacity at constant pressure (308.15 K): 140 ± 4.7 J/K/mol
- molar heat capacity at constant pressure (313.15 K): 140.9 ± 4.8 J/K/mol
- molar heat capacity at constant pressure (318.15 K): 142 ± 4.8 J/K/mol
- molar heat capacity at constant pressure (323.15 K): 143.6 ± 4.8 J/K/mol
- molar heat capacity at constant pressure (328.15 K): 145.5 ± 4.9 J/K/mol
- molar heat capacity at constant pressure (333.15 K): 147.9 ± 4.9 J/K/mol
- molar heat capacity at constant pressure (338.15 K): 150.6 ± 5 J/K/mol
- molar heat capacity at constant pressure (343.15 K): 153.8 ± 5.1 J/K/mol

SMILES: O=c1[nH]cc(I)c(=O)[nH]1 [5-iodouracil]
- molar heat capacity at constant pressure (298.15 K): 150.9 ± 4.7 J/K/mol
- molar heat capacity at constant pressure (303.15 K): 153.9 ± 4.8 J/K/mol
- molar heat capacity at constant pressure (308.15 K): 156.8 ± 4.9 J/K/mol
- molar heat capacity at constant pressure (313.15 K): 159.8 ± 5 J/K/mol
- molar heat capacity at constant pressure (318.15 K): 162.8 ± 5 J/K/mol
- molar heat capacity at constant pressure (323.15 K): 165.8 ± 5.1 J/K/mol
- molar heat capacity at constant pressure (328.15 K): 168.6 ± 5.2 J/K/mol
- molar heat capacity at constant pressure (333.15 K): 170.3 ± 5.3 J/K/mol
- molar heat capacity at constant pressure (338.15 K): 172.7 ± 5.4 J/K/mol
- molar heat capacity at constant pressure (343.15 K): 177.5 ± 5.5 J/K/mol
